Several values for one entry are separate records, joined by “and”; a condition that tells them apart may be missing. Equal entries are not always repeated.
Key:
Type in all cases: cell-based, human
[1] = system: SNAT2; test: Radiolabelled proline uptake in amino acid depleted SKOV3 cells
Description: (§1) Functional characterisation of plasma membrane transporters in human cancer cells was determined at 37°C using an array of radiolabelled amino acid substrates. Modified Hanks HEPES-buffered salts solution (mHBSS; 137 mM NaCl; 5.4 mM KCl; 2.7 mM K2HPO4; 1 mM CaCl2; 0.5 mM MgCl2; 0.44 mM KH2PO4; 0.4 mM MgSO4; 5 mM D-glucose; 5 mM HEPES; pH 7.4) was used to wash and incubate cells where sodium dependent transport was measured, while N-methyl-D-glucamine (NMDG) and potassium salts substituted sodium in NMDG mHBSS to measure sodium independent uptake. For the assay, cells were seeded in 35 mm dishes and, once confluent, were washed thrice with warm mHBSS solution and incubated with mHBSS containing an 100 µM amino acid at a final specific activity of ≥2000 cpm/nmol (U-[^14C]amino acids were from PerkinElmer). After 6 min, cells were washed thrice with ice-cold mHBSS, lysed with 500 µl of 0.1 M HCl, detached with a cell scraper and triturated. A 400 µl aliquot was used for scintillation counting, while the remainder was saved for protein mass quantification by Bradford assay. Transport rates were normalised to the protein content of the culture dish.
(§2) IC50 were calculated using equation y=ymax(1−x/x+IC50)

[2] = system: SNAT1/2; test: [14C]glutamine uptake in HCC1806 cells
Description: as §1

[3] = system: SNAT1 and SNAT2; test: FMP assay: inhibition of glutamine-induced membrane depolarisation in amino acid depleted HCC1806 cells
Description: The FLIPR Membrane Potential Blue Explorer Kit (Molecular Devices) was used to characterise inhibitors and to optimise a high-throughput compound screen. Cells were seeded at approximately 60,000 cells/well on a 96-well plate and allowed to attach and grow overnight in a cell incubator. […] Cells were then washed once with mHBSS and incubated with 50 µl of the mHBSS-resuspended FMP assay dye and 50 µl of mHBSS (with or without inhibitors) and incubated at room temperature for 30 min. The plate was then placed in an EnSpire Multimode plate reader (PerkinElmer) and four sequential measurements of fluorescence were recorded as a baseline reference. Immediately after the baseline measurements were taken, 25 µl of 5 mM glutamine dissolved in mHBSS was injected into each well and the plate was shaken orbitally for 5 s before a series of consecutive fluorescence measurements were taken. The excitation wavelength was set to 530 nm and the emission was detected at 565 nm. The Δ fluorescent signal reported in the figures was taken 30 s after substrate addition. After the assay was complete, the liquid content of the plate was carefully removed, and the cell monolayer inspected to ensure it remained intact throughout the course of the assay.
as §2

[4] = HCC1806, second column group headed UNINDUCED (c11-c19), t=-30 s, glutamine introduced at t=0, replicates 1-3
[5] = HCC1806 UNINDUCED (c1-c9), t=0 s
[6] = HCC1806 UNINDUCED (c1-c9), t=15 s
[7] = HCC1806 UNINDUCED (c1-c9), t=30 s
[8] = HCC1806 UNINDUCED (c1-c9), t=45 s
[9] = HCC1806 UNINDUCED (c1-c9), t=60 s
[10] = HCC1806 UNINDUCED (c1-c9), t=75 s
[11] = HCC1806 UNINDUCED (c1-c9), t=90 s
[12] = HCC1806 UNINDUCED (c1-c9), t=105 s
[13] = HCC1806 UNINDUCED (c1-c9), t=120 s
[14] = HCC1806 UNINDUCED (c1-c9), t=135 s
[15] = HCC1806 UNINDUCED (c1-c9), t=-15 s
[16] = HCC1806 UNINDUCED (c1-c9), t=-30 s, glutamine introduced at t=0, replicates 1-3
[17] = second group headed UNINDUCED (c11-c19), t=0 s
[18] = second group headed UNINDUCED (c11-c19), t=15 s
[19] = second group headed UNINDUCED (c11-c19), t=30 s
[20] = second group headed UNINDUCED (c11-c19), t=45 s
[21] = second group headed UNINDUCED (c11-c19), t=60 s
[22] = second group headed UNINDUCED (c11-c19), t=75 s
[23] = second group headed UNINDUCED (c11-c19), t=90 s
[24] = second group headed UNINDUCED (c11-c19), t=105 s
[25] = second group headed UNINDUCED (c11-c19), t=120 s
[26] = second group headed UNINDUCED (c11-c19), t=135 s
[27] = second group headed UNINDUCED (c11-c19), t=-15 s

Compound: C[N+](C)(C)CC(=O)O [Betaine, betaine]
- inhibition of proline uptake ([1]; 10 mM, 100 µM proline, Figure 4A (24 h starvation)): 30%
- inhibition of proline uptake ([1]; 10 mM, Figure 4D (15 h starvation)): 60%
- Proline uptake (nmol / mg protein x 6 min) ([1]; Figure 4A, 10mM, replicates 1-3): 14.3516 nmol / mg protein x 6 min and 14.2805 nmol / mg protein x 6 min and 13.5695 nmol / mg protein x 6 min
- Proline uptake (nmol / mg protein x 6 min) ([1]; Figure 5B, reference inhibitors, replicates): 7.636 nmol / mg protein x 6 min and 7.165 nmol / mg protein x 6 min and 7.435 nmol / mg protein x 6 min and 7.421 nmol / mg protein x 6 min
- Glutamine uptake ([2]; AA+ (growth medium), 100 µM glutamine, replicates 1-3): 37.8707 nmol / mg protein x 6 min and 45.7014 nmol / mg protein x 6 min and 38.6268 nmol / mg protein x 6 min
- Glutamine uptake ([2]; AA- (starvation medium 24 h), 100 µM glutamine, replicates 1-3): 13.5306 nmol / mg protein x 6 min and 16.7838 nmol / mg protein x 6 min and 15.0446 nmol / mg protein x 6 min
- reduction of glutamine uptake ([2]; amino acid depleted HCC1806 cells (24 h), 100 µM glutamine): 46%

Compound: Cc1ccc(S(=O)(=O)N(C)c2ccsc2C(=O)NCc2ccccc2C(F)(F)F)cc1 [Compound 57_E, 3-(N-methyl (4-methylphenyl)sulfonamido)-N-(2-trifluoromethylbenzyl)thiophene-2-carboxamide]
- inhibition of proline uptake ([1]; 30 µM, Figure 4A): inhibition equivalent to betaine
- Proline uptake (nmol / mg protein x 6 min) ([1]; Figure 4A, screening compounds, replicates 1-3): 12.1271 nmol / mg protein x 6 min and 12.3527 nmol / mg protein x 6 min and 11.9613 nmol / mg protein x 6 min
- Proline uptake (nmol / mg protein x 6 min) ([1]; Figure 5B, 0.03 uM): 13.4934 nmol / mg protein x 6 min and 12.6179 nmol / mg protein x 6 min and 11.806 nmol / mg protein x 6 min and 12.3756 nmol / mg protein x 6 min
- Proline uptake (nmol / mg protein x 6 min) ([1]; Figure 5B, 0.1 uM): 11.4589 nmol / mg protein x 6 min and 11.5974 nmol / mg protein x 6 min and 12.2114 nmol / mg protein x 6 min and 11.4952 nmol / mg protein x 6 min
- Proline uptake (nmol / mg protein x 6 min) ([1]; Figure 5B, 0.3 uM): 9.658 nmol / mg protein x 6 min and 10.0504 nmol / mg protein x 6 min and 12.5202 nmol / mg protein x 6 min and 8.873 nmol / mg protein x 6 min
- Proline uptake (nmol / mg protein x 6 min) ([1]; Figure 5B, 1 uM): 8.923 nmol / mg protein x 6 min and 10.4357 nmol / mg protein x 6 min and 8.533 nmol / mg protein x 6 min
- Proline uptake (nmol / mg protein x 6 min) ([1]; Figure 5B, 3 uM): 6.737 nmol / mg protein x 6 min and 7.879 nmol / mg protein x 6 min and 6.95 nmol / mg protein x 6 min and 7.052 nmol / mg protein x 6 min
- Proline uptake (nmol / mg protein x 6 min) ([1]; Figure 5B, 10 uM): 6.707 nmol / mg protein x 6 min and 7.214 nmol / mg protein x 6 min and 6.31 nmol / mg protein x 6 min and 7.23 nmol / mg protein x 6 min
- inhibition of 100 µM glutamine uptake ([2]; 50 µM inhibitor, HCC1806 after 24 h amino acid depletion): inhibited a significant fraction of the MeAIB-sensitive component of glutamine uptake
- Glutamine uptake (nmol / mg protein x 6 min) ([2]; Figure 3D, replicates 1-3): 46.6677 nmol / mg protein x 6 min and 48.4796 nmol / mg protein x 6 min and 48.0528 nmol / mg protein x 6 min

Compound: N[C@@H](CCC(=O)NO)C(=O)O [GHX, L-glutamic acid γ-monohydroxamate]
- Mean (delta) fluorescence signal (%) ([3]; GHX concentration 0.005): 92.4453%
- Mean (delta) fluorescence signal (%) ([3]; GHX concentration 0.05): 88.1978%
- Mean (delta) fluorescence signal (%) ([3]; GHX concentration 0.1): 81.9185%
- Mean (delta) fluorescence signal (%) ([3]; GHX concentration 0.2): 62.0593%
- Mean (delta) fluorescence signal (%) ([3]; GHX concentration 0.5): 45.7050%
- Mean (delta) fluorescence signal (%) ([3]; GHX concentration 1): 28.4974%
- Mean (delta) fluorescence signal (%) ([3]; GHX concentration 3): 5.9801%
- FMP fluorescence reading [3, 4]: 80140 and 84104 and 92453
- FMP fluorescence reading [3, 5]: 95009 and 106958 and 105072
- FMP fluorescence reading [3, 6]: 92832 and 105585 and 105488
- FMP fluorescence reading [3, 7]: 92285 and 105041 and 105362
- FMP fluorescence reading [3, 8]: 92217 and 104713 and 105477
- FMP fluorescence reading [3, 9]: 92501 and 104852 and 105149
- FMP fluorescence reading [3, 10]: 92072 and 104235 and 104746
- FMP fluorescence reading [3, 11]: 91505 and 104029 and 104931
- FMP fluorescence reading [3, 12]: 91498 and 103606 and 105160
- FMP fluorescence reading [3, 13]: 91509 and 103340 and 104992
- FMP fluorescence reading [3, 14]: 91754 and 103170 and 104515
- FMP fluorescence reading [3, 15]: 94947 and 106966 and 104913
- FMP fluorescence reading [3, 16]: 94749 and 106497 and 104978
- IC50 ([3]; glutamine induced depolarisation, HCC1806 AA- (24h), n = 3): 330 ± 160 µM
- FMP fluorescence reading [3, 17]: 79859 and 84357 and 91947
- FMP fluorescence reading [3, 18]: 80630 and 83515 and 91899
- FMP fluorescence reading [3, 19]: 79854 and 83032 and 91748
- FMP fluorescence reading [3, 20]: 79700 and 82661 and 90895
- FMP fluorescence reading [3, 21]: 79052 and 82273 and 90365
- FMP fluorescence reading [3, 22]: 78466 and 81641 and 89825
- FMP fluorescence reading [3, 23]: 78374 and 80769 and 89707
- FMP fluorescence reading [3, 24]: 77755 and 80422 and 88694
- FMP fluorescence reading [3, 25]: 77065 and 79988 and 88225
- FMP fluorescence reading [3, 26]: 76289 and 79358 and 87841
- FMP fluorescence reading [3, 27]: 80373 and 84318 and 91914

Compound: NC(=O)CC[C@H](N)C(=O)O [Glutamine, glutamine]
- FMP fluorescence reading [3, 4]: 48604 and 53579 and 57451
- FMP fluorescence reading [3, 5]: 80152 and 93008 and 95175
- FMP fluorescence reading [3, 6]: 81192 and 94874 and 97430
- FMP fluorescence reading [3, 7]: 81634 and 95549 and 97622
- FMP fluorescence reading [3, 8]: 82112 and 96387 and 97827
- FMP fluorescence reading [3, 9]: 82774 and 96256 and 98257
- FMP fluorescence reading [3, 10]: 83212 and 96832 and 98303
- FMP fluorescence reading [3, 11]: 83103 and 97466 and 98281
- FMP fluorescence reading [3, 12]: 83167 and 97358 and 97714
- FMP fluorescence reading [3, 13]: 83214 and 97405 and 97828
- FMP fluorescence reading [3, 14]: 83426 and 97359 and 98137
- FMP fluorescence reading [3, 15]: 80647 and 93663 and 95145
- FMP fluorescence reading [3, 16]: 79899 and 92924 and 94884
- FMP fluorescence reading [3, 17]: 48277 and 53613 and 57279
- FMP fluorescence reading [3, 18]: 87410 and 95992 and 106048
- FMP fluorescence reading [3, 19]: 92514 and 100953 and 110310
- FMP fluorescence reading [3, 20]: 96611 and 104700 and 113605
- FMP fluorescence reading [3, 21]: 98488 and 108054 and 116646
- FMP fluorescence reading [3, 22]: 100460 and 110105 and 118023
- FMP fluorescence reading [3, 23]: 101322 and 111642 and 119920
- FMP fluorescence reading [3, 24]: 102745 and 112818 and 120694
- FMP fluorescence reading [3, 25]: 102428 and 112661 and 120909
- FMP fluorescence reading [3, 26]: 102525 and 112308 and 120142
- FMP fluorescence reading [3, 27]: 48090 and 53580 and 57674

Source: paper PMC9532951, “Identification and characterization of a novel SNAT2 (SLC38A2) inhibitor reveals synergy with glucose transport inhibition in cancer cells” (Frontiers in Pharmacology, 2022)
